The source made the active and inactive calls.

The target of experiment [1] is Voltage-gated inwardly rectifying potassium channel KCNH2 (Homo sapiens, UniProt Q12809). Kind of experiment: concentration-dependent hERG rescue from blockers – cell-based, thallium flux, dose response (AID 2121). It counts as ADME. For orientation: hERG is a cardiac potassium channel; its block is linked to QT prolongation.
For experiment [2], the target named is E3 ubiquitin-protein ligase Mdm2 (Homo sapiens, UniProt Q00987). In words: MDM2-luc reporter signal enhancers, multi-concentration potency testing, MDM2 ubiquitin-protein ligase inhibitor program, whole-cell format, luminescence detection, 384-well microplate (AID 1394).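 Note: MDM2 E3 inhibitors raise luminescence so EC50 is for signal enhancement.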 The class given is functional.
Chain of E3 ubiquitin-protein ligase Mdm2 (Q00987 whole entry): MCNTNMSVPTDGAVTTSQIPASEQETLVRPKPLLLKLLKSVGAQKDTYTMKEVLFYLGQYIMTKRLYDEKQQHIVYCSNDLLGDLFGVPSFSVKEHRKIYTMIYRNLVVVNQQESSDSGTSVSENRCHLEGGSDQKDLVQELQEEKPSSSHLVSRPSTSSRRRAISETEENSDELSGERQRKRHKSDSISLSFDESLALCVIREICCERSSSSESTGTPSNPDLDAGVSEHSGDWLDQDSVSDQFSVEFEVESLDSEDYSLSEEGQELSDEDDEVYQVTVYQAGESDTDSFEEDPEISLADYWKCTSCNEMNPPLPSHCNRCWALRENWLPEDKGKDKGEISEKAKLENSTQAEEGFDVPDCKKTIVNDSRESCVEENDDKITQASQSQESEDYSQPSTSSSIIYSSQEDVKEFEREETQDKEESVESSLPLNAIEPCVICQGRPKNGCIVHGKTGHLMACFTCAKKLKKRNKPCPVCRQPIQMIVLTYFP
The target in experiment [3] is T1, Aryl hydrocarbon receptor (Homo sapiens, UniProt P35869).
T1 sequence (P35869 whole entry): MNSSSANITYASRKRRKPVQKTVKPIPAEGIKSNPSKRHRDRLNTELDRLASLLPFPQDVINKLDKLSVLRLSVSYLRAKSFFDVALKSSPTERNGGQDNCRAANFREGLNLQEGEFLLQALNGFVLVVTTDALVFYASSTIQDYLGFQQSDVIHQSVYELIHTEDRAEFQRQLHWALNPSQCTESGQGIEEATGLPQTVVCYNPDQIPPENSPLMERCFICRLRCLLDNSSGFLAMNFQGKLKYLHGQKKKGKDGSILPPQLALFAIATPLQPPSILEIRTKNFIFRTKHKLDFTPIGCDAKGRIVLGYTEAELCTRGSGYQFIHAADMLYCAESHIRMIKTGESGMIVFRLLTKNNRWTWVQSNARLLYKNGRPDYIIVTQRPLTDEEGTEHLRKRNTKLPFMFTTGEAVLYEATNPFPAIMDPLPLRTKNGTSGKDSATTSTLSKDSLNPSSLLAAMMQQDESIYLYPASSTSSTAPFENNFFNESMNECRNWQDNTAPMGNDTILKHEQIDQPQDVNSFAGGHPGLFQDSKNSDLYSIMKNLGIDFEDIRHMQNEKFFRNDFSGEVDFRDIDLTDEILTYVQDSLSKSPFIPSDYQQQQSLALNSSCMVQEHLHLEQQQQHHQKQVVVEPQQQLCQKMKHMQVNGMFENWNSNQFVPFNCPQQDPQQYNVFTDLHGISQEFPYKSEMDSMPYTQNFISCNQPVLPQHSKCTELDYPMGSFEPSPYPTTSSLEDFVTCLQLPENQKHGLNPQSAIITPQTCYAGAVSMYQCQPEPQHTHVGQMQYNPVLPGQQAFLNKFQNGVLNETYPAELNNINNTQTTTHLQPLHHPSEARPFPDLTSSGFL
Kind of experiment: Luminescence-based cell-based high throughput dose response assay for activators of the Aryl Hydrocarbon Receptor (AHR). [Related pubchem assays: 2796 (Primary screen (AHR activators in singlicate)), 2845 (Confirmation screen (AHR activators in triplicate)), 434939 (Counterscreen (PXR activators in triplicate)), 2804 (Summary (AHR activators))]. The class given is ADME. (The purpose of a counterscreen is to sort out artefacts and off-target activity.)

Experiment [4] in a line: Luminescence Cell-Based Dose Response to Identify Activators of Luciferase Translation or Activity in H4-C Neuroglioblastoma Cells. [Related pubchem assays: 1829 (Project Summary), 1814 (Primary HTS)]. It counts as functional.
Experiment [5] has as its system H4. In words: Luminescence Cell-Based Dose Response HTS to Identify Activators of 5'UTR Stem-Loop Driven Prion Protein mRNA Translation in H4 Neuroglioblastoma Cells. [Related pubchem assays: 1829 (Project Summary), 1814 (Primary HTS)]. It counts as functional. As to conditions: Homo sapiens.
The nature of experiment [6]: Luminescence Cell-Based Dose Response HTS to Identify Activators of Luciferase Translation or Activity in H4 […] Cells. [Related pubchem assays: 1829 (Project Summary), 1814 (Primary HTS)]. It counts as functional.
Experiment [7] can be described thus: Luminescence Cell-Based Dose Response to Identify Activators of 5'UTR Stem-Loop Driven Prion Protein mRNA Translation in H4-C Neuroglioblastoma Cells. [Related pubchem assays: 1829 (Project Summary), 1814 (Primary HTS)]. The class given is functional.
The nature of experiment [8]: Luminescence Cell-Based Dose Confirmation to Identify Activators of 5'UTR Stem-Loop Driven Alpha-Synuclein mRNA Translation in H4 Neuroglioblastoma Cells. [Related pubchem assays: 1829 (Project Summary), 1814 (Primary HTS)]. The class given is functional.
Experiment [9] can be described thus: Trypanosoma cruzi growth suppression in host cells – NIH3T3 host cells, beta-gal luminescence, confirmation (AID 2044).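 Note: intracellular parasites grown in NIH/3T3 mouse fibroblasts as host cells; luminescent beta-galactosidase reporter signal from transgenic T. cruzi replicating inside host cells; inhibitors lower the luminescence signal.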 The class given is functional, cell-based.
Experiment [10] relates to Streptococcus. In words: GAS UMAA2166 growth inhibition – luminescence, BacTiterGlo, counter-screen for streptokinase expression inhibitor project, dose response (AID 1915).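 Note: potency for reduction of bacterial viability or growth.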 It counts as functional, organism-based.
A short description of experiment [11]: NIH3T3 cell viability loss – ATP luminescence, mouse fibroblasts, counter-screen, dose response (AID 2010).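 Note: cells exposed to compound for about 90 hours before reading.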 It counts as functional, cell-based.
The test system of experiment [12] is Streptococcus sp. 'group A'. Kind of experiment: Streptococcus pyogenes SK(-)GAS viability under kanamycin – luminescence, BacTiterGlo, confirmation, counter-screen for streptokinase expression inhibitor project, dose response (AID 1900). It counts as functional, organism-based.
For experiment [13], the target named is Sphingosine 1-phosphate receptor 2 (Homo sapiens, UniProt O95136). In words: Dose Response Cell Based Assay for Antagonists of the S1P2 Receptor. [Related pubchem assays: 856, 736 ]. It counts as functional.
Chain of Sphingosine 1-phosphate receptor 2 (O95136 whole entry): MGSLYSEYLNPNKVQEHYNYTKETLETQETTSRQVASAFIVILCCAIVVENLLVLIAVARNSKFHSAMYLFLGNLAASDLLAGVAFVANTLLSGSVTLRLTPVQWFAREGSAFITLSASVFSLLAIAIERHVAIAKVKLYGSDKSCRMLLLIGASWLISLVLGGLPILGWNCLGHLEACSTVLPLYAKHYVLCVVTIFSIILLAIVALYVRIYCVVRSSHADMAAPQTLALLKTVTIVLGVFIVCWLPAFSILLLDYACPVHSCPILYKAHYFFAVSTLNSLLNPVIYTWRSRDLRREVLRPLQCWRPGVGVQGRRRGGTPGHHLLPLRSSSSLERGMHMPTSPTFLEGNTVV
In experiment [14] the target is T2, Apoptotic protease-activating factor 1 (Homo sapiens, UniProt O14727).
T2 sequence (O14727 whole entry): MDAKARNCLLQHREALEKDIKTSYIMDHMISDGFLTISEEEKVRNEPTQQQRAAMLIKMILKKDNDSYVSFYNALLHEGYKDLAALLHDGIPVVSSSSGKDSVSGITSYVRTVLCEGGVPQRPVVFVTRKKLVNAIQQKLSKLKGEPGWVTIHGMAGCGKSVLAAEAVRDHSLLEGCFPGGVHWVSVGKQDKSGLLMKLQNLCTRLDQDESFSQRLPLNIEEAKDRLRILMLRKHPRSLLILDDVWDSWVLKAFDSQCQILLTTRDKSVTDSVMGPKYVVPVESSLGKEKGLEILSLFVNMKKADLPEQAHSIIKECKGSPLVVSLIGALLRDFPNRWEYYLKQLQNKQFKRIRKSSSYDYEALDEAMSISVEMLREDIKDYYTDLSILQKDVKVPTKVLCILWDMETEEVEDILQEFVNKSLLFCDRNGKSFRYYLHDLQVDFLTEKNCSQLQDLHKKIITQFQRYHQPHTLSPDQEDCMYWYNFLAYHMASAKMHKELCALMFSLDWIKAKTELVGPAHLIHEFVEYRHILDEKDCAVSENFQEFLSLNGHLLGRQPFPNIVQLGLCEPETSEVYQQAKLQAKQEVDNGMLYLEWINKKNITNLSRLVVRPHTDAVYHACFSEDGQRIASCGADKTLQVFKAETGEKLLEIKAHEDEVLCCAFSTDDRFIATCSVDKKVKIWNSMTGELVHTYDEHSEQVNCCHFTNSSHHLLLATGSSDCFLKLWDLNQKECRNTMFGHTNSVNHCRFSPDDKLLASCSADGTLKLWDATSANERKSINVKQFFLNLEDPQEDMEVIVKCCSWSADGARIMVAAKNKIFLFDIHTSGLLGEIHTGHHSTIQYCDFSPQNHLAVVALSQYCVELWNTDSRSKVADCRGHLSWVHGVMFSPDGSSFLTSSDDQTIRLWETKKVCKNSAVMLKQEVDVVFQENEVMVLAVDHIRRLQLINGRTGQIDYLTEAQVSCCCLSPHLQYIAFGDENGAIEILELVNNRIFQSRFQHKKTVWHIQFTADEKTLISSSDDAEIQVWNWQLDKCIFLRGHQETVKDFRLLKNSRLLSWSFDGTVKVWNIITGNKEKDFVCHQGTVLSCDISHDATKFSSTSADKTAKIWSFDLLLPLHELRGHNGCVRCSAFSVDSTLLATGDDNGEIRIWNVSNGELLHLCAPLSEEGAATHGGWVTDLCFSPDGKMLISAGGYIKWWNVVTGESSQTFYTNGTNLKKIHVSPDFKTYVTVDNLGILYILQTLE
The class given is functional.

For experiment [15], the target named is T3, Mannose-6-phosphate isomerase (Homo sapiens, UniProt P34949).
T3 sequence (P34949 whole entry): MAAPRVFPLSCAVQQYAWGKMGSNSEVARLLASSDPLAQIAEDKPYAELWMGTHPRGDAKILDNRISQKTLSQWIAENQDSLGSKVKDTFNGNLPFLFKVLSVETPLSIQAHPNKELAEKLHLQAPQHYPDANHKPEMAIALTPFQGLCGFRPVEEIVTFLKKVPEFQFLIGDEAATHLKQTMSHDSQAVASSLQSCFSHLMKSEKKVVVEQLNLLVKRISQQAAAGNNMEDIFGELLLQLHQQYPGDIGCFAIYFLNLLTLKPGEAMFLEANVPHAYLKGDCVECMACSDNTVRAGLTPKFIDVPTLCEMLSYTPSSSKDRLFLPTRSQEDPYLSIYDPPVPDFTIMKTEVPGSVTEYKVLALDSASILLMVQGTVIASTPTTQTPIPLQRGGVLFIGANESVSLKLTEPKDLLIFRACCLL
In words: MPI inhibition at elevated mannose 6-phosphate – biochemical, fluorescence intensity, high mannose 6-phosphate, primary screen (AID 1220).

Experiment [16] can be described thus: viability loss in THP-1 monocytes – THP-1 cells, cytotoxicity control for Vif-APOBEC3G degradation inhibitor project, dose response (AID 1117359). It counts as functional. As to conditions: THP-1.
The target in experiment [17] is T3, Mannose-6-phosphate isomerase. Kind of experiment: MPI enzyme activity inhibition – biochemical, fluorescence intensity, coupled assay, primary screen (AID 1209).

Chain of Voltage-gated inwardly rectifying potassium channel KCNH2 (Q12809 whole entry): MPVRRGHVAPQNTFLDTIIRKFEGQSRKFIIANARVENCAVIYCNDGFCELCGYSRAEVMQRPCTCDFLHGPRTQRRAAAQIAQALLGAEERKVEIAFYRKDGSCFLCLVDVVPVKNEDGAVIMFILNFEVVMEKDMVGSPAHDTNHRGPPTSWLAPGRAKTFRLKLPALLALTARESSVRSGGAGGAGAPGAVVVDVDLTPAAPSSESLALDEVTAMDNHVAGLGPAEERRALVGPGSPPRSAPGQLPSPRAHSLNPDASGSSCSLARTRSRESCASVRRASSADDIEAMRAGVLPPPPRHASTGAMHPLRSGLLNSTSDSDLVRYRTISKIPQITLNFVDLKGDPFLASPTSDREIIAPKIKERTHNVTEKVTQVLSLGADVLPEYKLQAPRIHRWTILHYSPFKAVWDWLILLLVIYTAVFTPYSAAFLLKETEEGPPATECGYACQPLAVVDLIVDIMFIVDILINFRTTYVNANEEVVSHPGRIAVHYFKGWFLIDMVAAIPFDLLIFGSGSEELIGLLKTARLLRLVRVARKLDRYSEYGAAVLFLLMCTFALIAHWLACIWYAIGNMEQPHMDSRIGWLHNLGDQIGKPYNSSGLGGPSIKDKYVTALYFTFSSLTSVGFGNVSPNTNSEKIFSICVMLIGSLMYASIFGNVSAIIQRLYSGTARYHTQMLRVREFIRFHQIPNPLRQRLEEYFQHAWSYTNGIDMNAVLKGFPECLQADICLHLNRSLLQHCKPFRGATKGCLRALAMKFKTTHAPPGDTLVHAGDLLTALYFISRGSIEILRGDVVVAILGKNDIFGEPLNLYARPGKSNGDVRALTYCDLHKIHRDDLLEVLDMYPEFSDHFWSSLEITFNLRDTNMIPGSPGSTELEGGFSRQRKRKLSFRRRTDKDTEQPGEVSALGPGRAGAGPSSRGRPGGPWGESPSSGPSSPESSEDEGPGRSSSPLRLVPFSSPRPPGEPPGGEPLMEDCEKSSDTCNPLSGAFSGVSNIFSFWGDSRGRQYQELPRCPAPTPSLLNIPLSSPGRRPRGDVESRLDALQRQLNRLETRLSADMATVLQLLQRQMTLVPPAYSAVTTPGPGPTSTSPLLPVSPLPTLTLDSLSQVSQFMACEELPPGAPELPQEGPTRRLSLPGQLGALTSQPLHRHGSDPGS

Consider `O=C(NC(=S)Nc1cc(C(F)(F)F)ccc1Cl)c1ccccc1`, for which the EC50 in experiment [1] is 0.24 µM (active).
As for `Cc1nc(SCc2ccc(F)cc2)c([N+](=O)[O-])[nH]1`, the EC50 in [2] is given as 7.19 µM (not active).
Consider `CCC(=O)NC(=S)Nc1ccc(NC(=O)c2ccco2)c(Cl)c1`, for which the EC50 in [3] was 4.47 µM (active).
As for `Cc1cc(NC(=O)c2noc3c2CCCCC3)no1`, the concentration giving a half-maximal response (EC50) in [4] was 0.648 µM (active); in [5] it was 32.2 µM (active); in experiment [6] it was < 0.1 µM (inconclusive); in experiment [7] it was 2.21 µM (active); in experiment [8], 5.07 µM (active).
As to `C/C(=N/Nc1ccc(F)cc1)c1ccc(Cl)s1`, the EC50 in experiment [3] was 4.71 µM (active).
On to `Cn1c(-c2c(N)n(C3CCCC3)c3nc4ccccc4nc23)nc2ccccc21`, for which the EC50 was 0.905 µM (active) in experiment [9], 2.96 µM (active) in experiment [10], > 30 µM (not active) in experiment [11] and 0.391 µM (active) in experiment [12]. Further, the IC50 in experiment [13] is 5.09 µM (active).
Take `FC(F)(F)c1cnc2c(-c3cccs3)c(-c3nc[nH]n3)sc2c1`: the IC50 in experiment [13] is on record as 13.9 µM (not active).
As for `CCN1C(=O)c2cccc3c(N)ccc1c23`, the IC50 was 44 µM (active) in experiment [14] and > 50 µM (not active) in experiment [15].
For the compound `CC(C)NC[C@@H](O)c1ccc(O)c(O)c1`, the 50% inhibitory concentration (IC50) in experiment [15] and in [17] was > 50 µM (not active) throughout. In addition, the CC50 in experiment [16] is > 40 µM (active).

The term EC50 denotes the concentration at which the effect is half-maximal. What is called IC50 is the concentration at which inhibition is half-maximal. What is called CC50 is the concentration at which the toxic effect on the cells reaches its halfway point.
